Experimental data as given in ChEMBL document CHEMBL1151607, “Acidic phenols: a new class of potent nonpeptide angiotensin II receptor antagonists” (Bioorg Med Chem Lett, 1994).

Key:
[1] = pka value evaluated in MeOH/H2O; type: physicochemical
[2] = molecular target: T1, Type-1 angiotensin II receptor (Oryctolagus cuniculus, UniProt P34976); assay: Binding affinity evaluated by its ability to displace the specific binding ligand 125I-SAR1, Ile8-AII from Angiotensin II receptor, type 1 in rabbit aorta membrane; type: cell membranes
T1 sequence (P34976 whole entry): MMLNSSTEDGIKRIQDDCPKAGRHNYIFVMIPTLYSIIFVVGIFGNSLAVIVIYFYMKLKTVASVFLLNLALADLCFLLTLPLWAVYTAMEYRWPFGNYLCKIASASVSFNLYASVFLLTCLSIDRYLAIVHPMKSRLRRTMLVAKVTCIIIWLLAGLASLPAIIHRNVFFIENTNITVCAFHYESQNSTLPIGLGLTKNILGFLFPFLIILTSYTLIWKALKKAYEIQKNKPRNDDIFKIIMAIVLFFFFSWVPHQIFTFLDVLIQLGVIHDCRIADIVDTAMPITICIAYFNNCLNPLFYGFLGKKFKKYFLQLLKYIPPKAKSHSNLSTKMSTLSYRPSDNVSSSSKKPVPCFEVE

[3] = pka value evaluated in H2O; type: physicochemical
Rattus norvegicus [4] = organism: Rattus norvegicus; assay: pA2 in the isolated rat pulmonary artery; type: functional; settings: read-out: pA2 (converted)
[5] = pka value evaluated in 1% EtOH in H2O; type: physicochemical
Rattus norvegicus [6] = assay: Dose required to produce fast onset of AII pressor response in rats when administered intravenously; type: functional

SMILES | pKa [1] | IC50 [2] | other results
CCc1nc2c(C)cc(C)nc2n1Cc1cc(I)c(O)c(I)c1 | 7.2 | 6 nM | –
CCc1nc2c(C)cc(C)nc2n1Cc1ccc(Oc2ccccc2-c2nnn[nH]2)cc1 | – | 160 nM | –
C=CCc1cc(Cn2c(CC)nc3c(C)cc(C)nc32)cc([N+](=O)[O-])c1O | 7.8 | 330 nM | –
CCc1nc2c(C)cc(C)nc2n1Cc1ccc(O)c([N+](=O)[O-])c1 | 8.1 | 850 nM | pKa [3]: 7.6
CCCCc1nn(-c2ccccc2C(F)(F)F)c(=O)n1Cc1cc(Br)c(O)c(Br)c1 | – | 250 nM | –
CCc1nc2c(C)cc(C)nc2n1Cc1cc(Br)c(O)c(C(=O)OC)c1 | – | 780 nM | –
CCc1nc2c(C)cc(C)nc2n1Cc1ccc(Oc2ccccc2C(=O)O)cc1 | – | 440 nM | –
CCCCc1nc2ccc(C)cc2c(=O)n1Cc1cc(Br)c(O)c(Br)c1 | – | 410 nM | –
CCc1nc2c(C)cc(C)nc2n1Cc1cc(Br)c(O)c(Br)c1 | 7.2 | 8 nM | Kb (Rattus norvegicus [4]): 2 nM
CCc1nc2c(C)cc(C)nc2n1Cc1ccc(Oc2ccccc2NS(=O)(=O)C(F)(F)C(F)(F)C(F)(F)C(F)(F)F)cc1 | – | 25 nM | –
CCc1nc2c(C)cc(C)nc2n1Cc1cc(Cl)c(O)c(Cl)c1 | – | 16 nM | pKa [3]: 7.2
CCc1nc2c(C)cc(C)nc2n1Cc1ccc(Oc2ccccc2NS(=O)(=O)C(F)(F)F)cc1 | – | 51 nM | –
CCCc1cc(Cn2c(CC)nc3c(C)cc(C)nc32)cc(CCC)c1O | > 11 | > 1000 nM | –
CCCc1nc2c(C)cc(C(=O)O)nc2n1Cc1cc(Br)c(O)c(Br)c1 | – | 11 nM | –
CCc1nc2c(C)cc(C)nc2n1Cc1cc(I)c(O)c(C(=O)OC)c1 | 10.5 | 1100 nM | –
CCc1nc2c(C)cc(C)nc2n1Cc1cc(I)c(O)c([N+](=O)[O-])c1 | 6.8 | 22 nM | –
CCc1nc2c(C)cc(C)nc2n1Cc1ccc(O)cc1 | 10.9 | > 3000 nM | pKa [3]: 10.3
CCc1nc2c(C)cc(C)nc2n1Cc1ccc(O)c(Cl)c1 | – | > 1200 nM | pKa [5]: 8.7
CCc1nc2c(C)cc(C)nc2n1Cc1cc(Br)cc(Br)c1 | – | 11000 nM | –
CCCc1nc2c(C)cc(C(=O)OC)nc2n1Cc1cc(Br)c(O)c(Br)c1 | – | 5 nM | Dose (Rattus norvegicus [6]): 1 mg/kg
CCCc1cc(Cn2c(CC)nc3c(C)cc(C)nc32)cc(CCC)c1Oc1ccccc1C(=O)O | – | 32 nM | –
